Reference: ChEMBL document CHEMBL1201862, “PubChem BioAssay data set” (2004)
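Five concentrations, 48 hours, 96-well plates. At the GI50, growth is halved.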 Activity calls are given as the source filed them. No stated cut-off is given here; in the data, active = GI50 up to about 1.1 µM and inactive = higher.

Experiments:
Experiment in all cases: NCI tumour cell line growth inhibition, 48 h
LXFL 529 = system: LXFL 529
SNB-19 = system: SNB-19
HL-60 = system: HL-60
ACHN = system: ACHN
RXF 393 = system: RXF 393
SR = system: SR
CCRF-CEM = system: CCRF-CEM
NCI-H460 = system: NCI-H460
UACC-257 = system: UACC-257
M14 = system: M14
MOLT-4 = system: MOLT-4
A498 = system: A498
OVCAR-8 = system: OVCAR-8
SNB-75 = system: SNB-75
SK-MEL-2 = system: SK-MEL-2

Measured: GI50

O=C(O)c1cc2c3ccccc3nc-2c[nH]1
inactive: LXFL 529 > 100 µM | SNB-19 > 100 µM | HL-60 > 100 µM | ACHN > 100 µM | RXF 393 > 100 µM | SR > 100 µM | CCRF-CEM > 100 µM | NCI-H460 > 100 µM | UACC-257 > 100 µM | M14 > 100 µM | MOLT-4 > 100 µM | A498 10 µM | OVCAR-8 > 100 µM | SNB-75 > 100 µM

O=C1OC(=O)C2C1C1C(c3ccccc3)=C(c3ccccc3)C2(O)C2C(=O)OC(=O)C12 (centres undefined)
inactive: LXFL 529 58.3 µM | SNB-19 > 100 µM | HL-60 > 10 µM | ACHN > 100 µM | SR 78.5 µM | CCRF-CEM 37.5 µM | NCI-H460 > 100 µM | UACC-257 > 100 µM | M14 > 100 µM | SK-MEL-2 > 100 µM | MOLT-4 32.5 µM | A498 > 100 µM | OVCAR-8 63.8 µM | SNB-75 27.9 µM

CCOC(=O)/C(C(=O)c1ccccc1)=C1/NCCN1C
inactive: LXFL 529 > 100 µM | SNB-19 > 100 µM | HL-60 > 100 µM | ACHN > 100 µM | RXF 393 > 100 µM | SR > 100 µM | CCRF-CEM > 100 µM | NCI-H460 > 100 µM | UACC-257 > 100 µM | M14 > 100 µM | SK-MEL-2 > 100 µM | MOLT-4 > 100 µM | OVCAR-8 > 100 µM

O=C1C[C@@H]2[C@@H](CCC23CCCC3)N1
inactive: LXFL 529 > 100 µM | SNB-19 > 100 µM | HL-60 > 100 µM | ACHN > 100 µM | RXF 393 > 100 µM | CCRF-CEM > 100 µM | NCI-H460 > 100 µM | UACC-257 > 100 µM | M14 > 100 µM | SK-MEL-2 > 100 µM | MOLT-4 > 100 µM | A498 > 100 µM | OVCAR-8 > 100 µM | SNB-75 > 100 µM

CC1=C(c2ccccc2)C(c2ccccc2)=C(c2ccccc2)C2(c3ccccc3)C(=O)C(C)CN12 (centres undefined)
inactive: LXFL 529 43.8 µM | SNB-19 26.5 µM | ACHN 41.4 µM | RXF 393 26.1 µM | SR 26.4 µM | NCI-H460 32.7 µM | UACC-257 30.5 µM | M14 51.6 µM | SK-MEL-2 95.7 µM | MOLT-4 16.6 µM | A498 > 100 µM | OVCAR-8 17.9 µM | SNB-75 19.4 µM

CCOc1ccc(Nc2nc(C)c(C(=O)/C=C/c3ccc(Cl)cc3Cl)s2)cc1
inactive: LXFL 529 18.8 µM | SNB-19 31.4 µM | HL-60 27.2 µM | ACHN 27.4 µM | RXF 393 17.7 µM | SR 28.6 µM | CCRF-CEM 29.8 µM | NCI-H460 21.4 µM | UACC-257 24.6 µM | M14 23.9 µM | SK-MEL-2 24 µM | MOLT-4 23 µM | A498 22.8 µM | OVCAR-8 21.4 µM | SNB-75 18.5 µM

Cc1c(C)n(COCCO)c2ncnc(N)c12
inactive: LXFL 529 > 100 µM | SNB-19 > 100 µM | HL-60 > 100 µM | ACHN > 100 µM | RXF 393 > 100 µM | SR > 100 µM | CCRF-CEM > 100 µM | NCI-H460 > 100 µM | M14 > 100 µM | SK-MEL-2 > 100 µM | MOLT-4 > 100 µM | A498 > 100 µM | OVCAR-8 > 100 µM | SNB-75 > 100 µM

CN(C)c1ccc(/C=N\N2C(=O)c3ccccc3C2=O)cc1
inactive: LXFL 529 > 100 µM | SNB-19 > 100 µM | HL-60 > 100 µM | ACHN > 100 µM | RXF 393 > 100 µM | SR > 100 µM | CCRF-CEM > 100 µM | NCI-H460 > 100 µM | UACC-257 > 100 µM | M14 > 100 µM | SK-MEL-2 > 100 µM | MOLT-4 > 100 µM | A498 > 100 µM | OVCAR-8 > 100 µM | SNB-75 40.9 µM

N#C/C(=C/c1ccsc1)C(=O)c1ccccc1
inactive: LXFL 529 > 100 µM | SNB-19 > 100 µM | HL-60 > 100 µM | ACHN > 100 µM | RXF 393 > 100 µM | SR > 100 µM | CCRF-CEM > 100 µM | NCI-H460 > 100 µM | UACC-257 > 100 µM | M14 > 100 µM | SK-MEL-2 > 100 µM | MOLT-4 > 100 µM | OVCAR-8 > 100 µM | SNB-75 > 100 µM

COc1ccc2c(CCNC(=O)/C=C/c3ccccc3)c(C(C)=O)[nH]c2c1[N+](=O)[O-]
inactive: LXFL 529 10 µM | SNB-19 48.6 µM | HL-60 4.31 µM | ACHN 50.4 µM | SR 7.28 µM | CCRF-CEM 5.35 µM | NCI-H460 6.12 µM | UACC-257 8.95 µM | M14 7.33 µM | SK-MEL-2 17.4 µM | MOLT-4 5.69 µM | A498 17.3 µM | OVCAR-8 17.9 µM

COC(=O)C1=Cc2cn(S(=O)(=O)c3ccc(C)cc3)c3cccc(c23)C(C=C(C)C)N1C(C)=O (centres undefined)
inactive: LXFL 529 32 µM | SNB-19 49 µM | HL-60 5.56 µM | ACHN 18.8 µM | RXF 393 13.8 µM | SR 12.4 µM | CCRF-CEM 7.87 µM | UACC-257 11.3 µM | M14 30.2 µM | SK-MEL-2 4.68 µM | MOLT-4 3.1 µM | A498 68.9 µM | OVCAR-8 84.9 µM | SNB-75 98.6 µM

Nc1ccn(CCCC(c2ccccc2)P(=O)(O)O)c(=O)n1 (centres undefined)
inactive: LXFL 529 > 100 µM | SNB-19 > 100 µM | HL-60 > 100 µM | ACHN > 100 µM | SR > 100 µM | CCRF-CEM > 100 µM | NCI-H460 > 100 µM | UACC-257 > 100 µM | M14 > 100 µM | SK-MEL-2 > 100 µM | A498 > 100 µM | OVCAR-8 > 100 µM | SNB-75 > 100 µM

Cc1[nH]c(O)nc1C(=O)c1ccc(-n2ccnc2)cc1
inactive: LXFL 529 > 100 µM | SNB-19 > 100 µM | HL-60 > 100 µM | ACHN > 100 µM | RXF 393 > 100 µM | SR > 100 µM | NCI-H460 > 100 µM | UACC-257 > 100 µM | M14 > 100 µM | SK-MEL-2 > 100 µM | MOLT-4 > 100 µM | A498 > 100 µM | OVCAR-8 > 100 µM | SNB-75 > 100 µM

O=C1c2ccccc2C(=O)c2c(O)c(O)cc(O)c21 [PURPURIN]
inactive: LXFL 529 37.2 µM | SNB-19 34.1 µM | HL-60 24 µM | ACHN 27.4 µM | RXF 393 21.7 µM | CCRF-CEM 35 µM | NCI-H460 34.5 µM | UACC-257 49.4 µM | M14 41.3 µM | SK-MEL-2 21.2 µM | MOLT-4 34 µM | A498 31 µM | OVCAR-8 55.5 µM | SNB-75 85.9 µM
